Tests used:
[1] = tested on: single neuroepithelial stem cells; experiment: single cell culture tests: single neuroepithelial stem cell to neural tubes, one ingredient removed from the culture medium or inhibitor added; format: cell-based; conditions: for ability of the cells to form neural tubes: ingredient removed from the proliferation culture medium; for ability of the cells to form neural tubes / cell proliferation ability: single cell culture; for cell proliferation ability: ingredient removed alone from the proliferation culture medium
Description: Additionally, a neuroepithelial stem cell can self-organize into the neural tube structures. Preferably, the operation may be performed as follows: neuroepithelial stem cells cultured for long term are digested into single cells, limitedly diluted, and cultured on wells of a 96-well plate coated with laminin, one cell per well, in the above proliferation culture medium; the liquid is changed every 2-3 days, and the single neuroepithelial stem cells self-organize into a series of neural tube structures at the 14-15th day. These neural tube structures derived from single cells express Sox2, Nestin, Pax6, ZO-1 and N-cadherin.
In addition, in the present embodiment, in order to detect which factors in the whole culture system are essential and necessary for the growth and generation of the neural tubes, it is possible to use the characteristic of the single cell forming the neural tube structure and to perform a series of single cell culture tests where one ingredient is removed from the culture medium every time to estimate which ingredients are essential for self-renewal of the neuroepithelial stem cells and formation of the neural tube.
SU5402 is an inhibitor of the FGF receptor. What the arrow points to is the miniature neural tube structure derived from the single neuroepithelial stem cell in the neuroepithelial stem cell proliferation culture medium containing SU5402.

[2] = tested on: single neuroepithelial stem cell; experiment: modeling neural tube defect disease by the single neuroepithelial stem cell to neural tubes assay (folic acid); format: cell-based; conditions: FIG. 5 (C)

| Compound | ability of the cells to form neural tubes [1] | cell proliferation ability [1] | other results |
| --- | --- | --- | --- |
| Cc1c[nH]c(-c2cnc(NCCNc3ccc(C#N)cn3)nc2-c2ccc(Cl)cc2Cl)n1.Cl [CHIR99021, reference compound] | no cell could produce the neural tube structure | – | – |
| NC(=O)c1ccc(-c2nc(-c3ccc4c(c3)OCO4)c(-c3ccccn3)[nH]2)cc1 [SB431542, reference compound] | does not affect the ability of the cells to form neural tubes | – | – |
| Cc1c[nH]c(/C=C2\C(=O)Nc3ccccc32)c1CCC(=O)O [SU5402, reference compound] | – | – | ability to produce neural tubes ([1]; SU5402 used to inhibit FGFR signaling pathway in proliferation culture medium): all cells lose the ability to produce neural tubes |
| Nc1nc2ncc(CNc3ccc(C(=O)N[C@@H](CCC(=O)O)C(=O)O)cc3)nc2c(=O)[nH]1 [folic acid] | – | – | colony apoptosis versus concentration of the folic acid [2]: in negative correlation with colony apoptosis; neural tube formation versus concentration of the folic acid [2]: in positive correlation with the neural tube formation |
| Leukemia Inhibitory Factor: regulates cell proliferation and differentiation; ingredient of the proliferation culture medium | significant decrease | significant decrease | continuous production of neural tube structures ([1]; secondary clone assays): necessary for cells to continuously produce neural tube structures |
| bFGF: growth factor; promotes early-stage differentiation and proliferation of neural stem cells | significant decrease | significant decrease | – |
